Assay results reported in paper PMC9029893 (International Journal of Molecular Sciences, 2022).

Legend:
HUVEC cells = test: HUVEC migration, wound-healing assay (JuLI Stage); format: cell-based, human
Experimental: The effects of compounds 1–5 on HUVEC migration were determined using the JuLI™ Stage system (NanoEntek, Seoul, Korea): a real-time cell history recorder allowing for live cell imaging and analysis. The procedure for the migration experiments has been published elsewhere in more detail. Concisely, HUVECs were seeded at a density of 10,000 cells per well on 96-well plates and incubated at standard conditions for 24 h. Following this, a wound was made with a scratcher (NanoEntek, Seoul, Korea). The cells were then rinsed with 100 μL of fresh EGM2 medium, and treated with biguanides 1–5 at the concentrations of 0.3 and 1.0 mM. The cells were incubated and monitored continuously every 10 min for 36 h at 37 °C, 5% CO2. Analysis of obtained images of cell migration, and measurements of the width of the scratch area were performed using dedicated software (NanoEntek, Seoul, Korea). The results were presented as mean ± SD, n = 4–8. The CV for the method was estimated as 14.2–24.4%, depending on the time point (n = 8).

[1] = test system: tissue plasminogen activator (t-PA) release from HUVEC; test: t-PA release from HUVEC (ELISA); format: cell-based, human; conditions: 24 h, HUVEC supernatants
Experimental: The influence on tissue plasminogen activator release from HUVECs was assessed using an ELISA kit (Abcam, Cambridge, UK). HUVECs seeded at a density of 10,000 per well on 96-well plates were co-incubated with compounds 1–5 at the concentrations of 0.3 and 1.0 mM for an additional 24 h (37 °C, 5% CO2). The cell supernatants were discarded into Eppendorf tubes and preserved at −20° C until analysis. Before the tests, the samples were thawed at room temperature for 15 min, and diluted 2.5-fold with diluent in Elisa kit. The measurements of t-PA concentrations in cell supernatants were conducted according to the manufacturer’s protocol using 3,3’,5,5’-tetramethylbenzidine (TMB) as a chromogenic substrate. The concentration of t-PA in HUVEC supernatants was determined using a calibration curve (R^2 = 0.9936). The results are presented as mean ± SD, n = 6. The CV for the applied method was 7.21%.

[2] = test system: human plasma (platelet poor plasma); test: Basic coagulation tests: PT, INR, APTT, TT; format: biochemical; conditions: for TT: thrombin 3.0 UNIH/mL
Experimental: The blood was collected into vacuum tubes stuffed with 3.2% buffered sodium citrate. Platelet poor plasma (PPP) was obtained by centrifugation at 3000× g for 10 min at room temperature using a Micro 22R centrifuge (Hettich Zentrifugen, Tuttlingen, Germany). The obtained PPP was stored in small aliquots for up to one month at –30° C. Before each experiment, PPP was restored at 37 °C for 15 min. Once thawed, the PPP was not frozen again nor used for retesting.
The effects of biguanidines (1–5) on the basic coagulation parameters (PT, INR, APTT, and TT) were carried out using a CoagChrom-3003 coagulometer (Bio-Ksel, Grudziądz, Poland), according to the routine laboratory diagnostic procedure. The studies were performed in multiplicate (n = 4–7). The control samples containing distilled water and methanol (1:1) were also included.
The results are presented as mean ± standard deviation (SD). The methods were validated, and coefficients of variability for all experiments were calculated (PT: CV = 10.25%, APTT: CV = 8.55%, TT: CV = 4.87%). The reference values for each test are as follows: PT: 9.7–14.6 s; APTT: 26.7–40.0 s; TT: 14.0–18.0 s for 3.0 UNIH/mL of thrombin.

[3] = test system: coagulation in human citrate plasma; test: Coagulation assay (endogenous thrombin generation); format: biochemical
Experimental: These reagents induce a feedback reaction leading to the generation of endogenous thrombin, and coagulation. The other experimental conditions were the same as for the CL-test (Section 4.12).
The obtained curves were analyzed using dedicated software that estimates the following parameters: TGt—thrombin generation time (s), Fmax—maximum clotting (%T), Tf—plasma clotting time (s), Fvo—initial plasma clotting velocity (%T/min), Sf—area under the clot formation curve (%Txmin), Tc—clot stabilization time (s), S—area under the curve of coagulation (%Txmin).

CCCCS(=O)(=O)NC(N)=NC(=N)N(C)C [Compound 1]
wound width (HUVEC cells; 0.3 mM, 6 hours): 491.9 ± 31.7 µm | wound width (HUVEC cells; 0.3 mM, 12 hours): 421.2 ± 5.9 µm | wound width (HUVEC cells; 0.3 mM, 18 hours): 365.2 ± 35.8 µm | wound width (HUVEC cells; 0.3 mM, 24 hours): 336.7 ± 39.0 µm | wound width (HUVEC cells; 0.3 mM, Start): 605.8 ± 38.63 µm | wound width (HUVEC cells; 1.0 mM, 6 hours): 461.9 ± 33.4 µm | wound width (HUVEC cells; 1.0 mM, 12 hours): 375.1 ± 29.9 µm | wound width (HUVEC cells; 1.0 mM, 18 hours): 344.4 ± 32.8 µm | wound width (HUVEC cells; 1.0 mM, 24 hours): 337.5 ± 47.3 µm | wound width (HUVEC cells; 1.0 mM, Start): 589.1 ± 36.3 µm | Released t-PA ([1]; 0.3 mM): 2427.2 ± 246.0 pg/mL | Released t-PA ([1]; 1.0 mM): 1709.5 ± 219.1 pg/mL | APTT ([2]; 0.006 mM): 35.12 ± 4.75 s | INR ([2]; 0.006 mM): 1.04 ± 0.19 | PT ([2]; 0.006 mM): 13.04 ± 2.41 s | TT ([2]; 0.006 mM): 14.03 ± 0.94 s | APTT ([2]; 0.06 mM): 33.36 ± 1.78 s | INR ([2]; 0.06 mM): 1.11 ± 0.23 | PT ([2]; 0.06 mM): 12.78 ± 1.86 s | TT ([2]; 0.06 mM): 12.98 ± 1.08 s | APTT ([2]; 0.3 mM): 33.76 ± 2.53 s | INR ([2]; 0.3 mM): 1.08 ± 0.22 | PT ([2]; 0.3 mM): 13.46 ± 2.71 s | TT ([2]; 0.3 mM): 13.90 ± 1.24 s | APTT ([2]; 0.6 mM): 34.68 ± 3.31 s | INR ([2]; 0.6 mM): 1.05 ± 0.19 | PT ([2]; 0.6 mM): 13.08 ± 2.36 s | TT ([2]; 0.6 mM): 12.64 ± 1.31 s | APTT ([2]; 1.5 mM): 34.68 ± 5.21 s | INR ([2]; 1.5 mM): 1.08 ± 0.23 | PT ([2]; 1.5 mM): 13.48 ± 2.93 s | TT ([2]; 1.5 mM): 13.03 ± 0.86 s | Fmax—maximum clotting ([3]; 0.06 mM): 76.30 ± 7.79 %T | Fvo—initial plasma clotting velocity ([3]; 0.06 mM): 97.22 ± 36.13 %T/min | Sc—area under the curve of a stable clot formation ([3]; 0.06 mM): 458.27 ± 113.77 %T x min | Sf—area under the clot formation curve ([3]; 0.06 mM): 140.16 ± 31.01 %T x min | S—overall potential of clot formation ([3]; 0.06 mM): 1449.09 ± 154.09 %T x min | TGt—thrombin generation time ([3]; 0.06 mM): 161.33 ± 35.27 s | Tf—plasma clotting time ([3]; 0.06 mM): 155.67 ± 45.29 s | Fmax—maximum clotting ([3]; 0.3 mM): 82.67 ± 4.79 %T | Fvo—initial plasma clotting velocity ([3]; 0.3 mM): 117.65 ± 36.38 %T/min | Sc—area under the curve of a stable clot formation ([3]; 0.3 mM): 544.47 ± 81.13 %T x min | Sf—area under the clot formation curve ([3]; 0.3 mM): 104.53 ± 38.44 %T x min | S—overall potential of clot formation ([3]; 0.3 mM): 1586.01 ± 103.04 %T x min | TGt—thrombin generation time ([3]; 0.3 mM): 162.33 ± 37.96 s | Tf—plasma clotting time ([3]; 0.3 mM): 109.63 ± 40.06 s | Fmax—maximum clotting ([3]; 0.6 mM): 75.62 ± 9.88 %T | Fvo—initial plasma clotting velocity ([3]; 0.6 mM): 96.52 ± 20.91 %T/min | Sc—area under the curve of a stable clot formation ([3]; 0.6 mM): 444.40 ± 91.71 %T x min | Sf—area under the clot formation curve ([3]; 0.6 mM): 119.01 ± 48.07 %T x min | S—overall potential of clot formation ([3]; 0.6 mM): 1442.42 ± 198.39 %T x min | TGt—thrombin generation time ([3]; 0.6 mM): 176.83 ± 57.02 s | Tf—plasma clotting time ([3]; 0.6 mM): 138.77 ± 59.29 s | Fmax—maximum clotting ([3]; 1.5 mM): 74.15 ± 7.83 %T | Fvo—initial plasma clotting velocity ([3]; 1.5 mM): 107.77 ± 35.80 %T/min | Sc—area under the curve of a stable clot formation ([3]; 1.5 mM): 452.95 ± 102.22 %T x min | Sf—area under the clot formation curve ([3]; 1.5 mM): 114.89 ± 64.82 %T x min | S—overall potential of clot formation ([3]; 1.5 mM): 1435.77 ± 143.80 %T x min | TGt—thrombin generation time ([3]; 1.5 mM): 172.00 ± 43.56 s | Tf—plasma clotting time ([3]; 1.5 mM): 135.33 ± 75.79 s

CCCCCCCCS(=O)(=O)NC(N)=NC(=N)N(C)C [Compound 2]
wound width (HUVEC cells; 0.3 mM, 6 hours): 493.8 ± 133.1 µm | wound width (HUVEC cells; 0.3 mM, 12 hours): 442.4 ± 142.9 µm | wound width (HUVEC cells; 0.3 mM, 18 hours): 351.4 ± 82.6 µm | wound width (HUVEC cells; 0.3 mM, 24 hours): 328.6 ± 56.9 µm | wound width (HUVEC cells; 0.3 mM, Start): 637.4 ± 116.3 µm | wound width (HUVEC cells; 1.0 mM, 6 hours): 590.8 ± 40.2 µm | wound width (HUVEC cells; 1.0 mM, 12 hours): 541.5 ± 99.2 µm | wound width (HUVEC cells; 1.0 mM, 18 hours): 453.1 ± 106.1 µm | wound width (HUVEC cells; 1.0 mM, 24 hours): 357.2 ± 68.1 µm | wound width (HUVEC cells; 1.0 mM, Start): 712.4 ± 56.5 µm | Released t-PA ([1]; 0.3 mM): 1633.9 ± 263.2 pg/mL | Released t-PA ([1]; 1.0 mM): 990.0 ± 158.5 pg/mL | APTT ([2]; 0.006 mM): 30.79 ± 5.87 s | INR ([2]; 0.006 mM): 1.07 ± 0.15 | PT ([2]; 0.006 mM): 13.30 ± 1.81 s | TT ([2]; 0.006 mM): 14.14 ± 0.59 s | APTT ([2]; 0.06 mM): 31.33 ± 5.53 s | INR ([2]; 0.06 mM): 1.03 ± 0.10 | PT ([2]; 0.06 mM): 12.82 ± 1.33 s | TT ([2]; 0.06 mM): 13.86 ± 0.80 s | APTT ([2]; 0.3 mM): 33.49 ± 4.85 s | INR ([2]; 0.3 mM): 1.05 ± 0.11 | PT ([2]; 0.3 mM): 13.10 ± 1.37 s | TT ([2]; 0.3 mM): 13.48 ± 2.10 s | APTT ([2]; 0.6 mM): 33.46 ± 5.59 s | INR ([2]; 0.6 mM): 1.04 ± 0.11 | PT ([2]; 0.6 mM): 12.96 ± 1.42 s | TT ([2]; 0.6 mM): 14.40 ± 2.35 s | APTT ([2]; 1.5 mM): 34.83 ± 6.22 s | INR ([2]; 1.5 mM): 1.06 ± 0.10 | PT ([2]; 1.5 mM): 13.20 ± 1.23 s | TT ([2]; 1.5 mM): 16.32 ± 2.21 s | Fmax—maximum clotting ([3]; 0.06 mM): 85.20 ± 6.52 %T | Fvo—initial plasma clotting velocity ([3]; 0.06 mM): 124.35 ± 37.66 %T/min | Sc—area under the curve of a stable clot formation ([3]; 0.06 mM): 562.66 ± 156.02 %T x min | Sf—area under the clot formation curve ([3]; 0.06 mM): 91.44 ± 30.65 %T x min | S—overall potential of clot formation ([3]; 0.06 mM): 1638.19 ± 135.59 %T x min | TGt—thrombin generation time ([3]; 0.06 mM): 151.33 ± 26.37 s | Tf—plasma clotting time ([3]; 0.06 mM): 98.28 ± 33.46 s | Fmax—maximum clotting ([3]; 0.3 mM): 85.12 ± 5.67 %T | Fvo—initial plasma clotting velocity ([3]; 0.3 mM): 142.17 ± 46.90 %T/min | Sc—area under the curve of a stable clot formation ([3]; 0.3 mM): 602.85 ± 84.63 %T x min | Sf—area under the clot formation curve ([3]; 0.3 mM): 79.63 ± 20.32 %T x min | S—overall potential of clot formation ([3]; 0.3 mM): 1641.98 ± 118.29 %T x min | TGt—thrombin generation time ([3]; 0.3 mM): 135.67 ± 25.90 s | Tf—plasma clotting time ([3]; 0.3 mM): 85.08 ± 25.10 s | Fmax—maximum clotting ([3]; 0.6 mM): 83.60 ± 6.72 %T | Fvo—initial plasma clotting velocity ([3]; 0.6 mM): 140.83 ± 37.45 %T/min | Sc—area under the curve of a stable clot formation ([3]; 0.6 mM): 583.07 ± 90.13 %T x min | Sf—area under the clot formation curve ([3]; 0.6 mM): 88.00 ± 18.58 %T x min | S—overall potential of clot formation ([3]; 0.6 mM): 1611.84 ± 135.58 %T x min | TGt—thrombin generation time ([3]; 0.6 mM): 153.33 ± 21.05 s | Tf—plasma clotting time ([3]; 0.6 mM): 91.58 ± 19.43 s | Fmax—maximum clotting ([3]; 1.5 mM): 76.35 ± 9.75 %T | Fvo—initial plasma clotting velocity ([3]; 1.5 mM): 120.32 ± 48.40 %T/min | Sc—area under the curve of a stable clot formation ([3]; 1.5 mM): 511.33 ± 178.11 %T x min | Sf—area under the clot formation curve ([3]; 1.5 mM): 87.66 ± 44.66 %T x min | S—overall potential of clot formation ([3]; 1.5 mM): 1467.86 ± 181.79 %T x min | TGt—thrombin generation time ([3]; 1.5 mM): 170.50 ± 31.73 s | Tf—plasma clotting time ([3]; 1.5 mM): 101.45 ± 38.76 s
